A word on the EC50: it is the concentration that produces a half-maximal response. What is called Papp B→A is the apparent permeability from the basolateral to the apical side of a cell layer.

Series [1] has as its target T1, Oxysterols receptor LXR-alpha (Homo sapiens, UniProt Q13133).
T1 sequence (Q13133 whole entry): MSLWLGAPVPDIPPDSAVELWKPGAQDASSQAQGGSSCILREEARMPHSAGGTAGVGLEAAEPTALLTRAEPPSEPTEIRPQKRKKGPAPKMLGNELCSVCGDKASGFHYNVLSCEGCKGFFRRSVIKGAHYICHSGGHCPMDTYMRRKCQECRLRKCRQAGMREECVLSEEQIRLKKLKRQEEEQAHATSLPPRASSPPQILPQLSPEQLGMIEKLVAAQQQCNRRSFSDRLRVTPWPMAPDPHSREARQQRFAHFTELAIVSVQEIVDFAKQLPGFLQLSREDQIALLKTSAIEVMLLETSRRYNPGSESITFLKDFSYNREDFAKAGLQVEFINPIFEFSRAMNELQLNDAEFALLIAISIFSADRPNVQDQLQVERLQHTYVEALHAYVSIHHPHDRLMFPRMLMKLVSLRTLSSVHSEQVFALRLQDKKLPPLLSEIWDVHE
As to the kind of experiment: Antagonist activity at GAL4-fused human LXRalpha expressed in HEK293 cells assessed as inhibition of T0901317-stimulated transcriptional activity after 20 hrs by dual-glo luciferase reporter gene assay. The format is cell-based.

Series [2] can be described thus: Apparent permeability across basolateral to apical side in MDCK cells at 100 uM after 60 mins by HPLC analysis. It counts as ADME, cell-based, Canis lupus familiaris. As to conditions: dog.
Series [3] can be described thus: Plasma protein binding in rat at 5 uM after 4 hrs by equilibrium dialysis method. As to conditions: read-out: PPB. It counts as ADME, cell-free.
For series [4], the target named is T2, Oxysterols receptor LXR-beta (Homo sapiens) (UniProt P55055).
T2 sequence (whole entry): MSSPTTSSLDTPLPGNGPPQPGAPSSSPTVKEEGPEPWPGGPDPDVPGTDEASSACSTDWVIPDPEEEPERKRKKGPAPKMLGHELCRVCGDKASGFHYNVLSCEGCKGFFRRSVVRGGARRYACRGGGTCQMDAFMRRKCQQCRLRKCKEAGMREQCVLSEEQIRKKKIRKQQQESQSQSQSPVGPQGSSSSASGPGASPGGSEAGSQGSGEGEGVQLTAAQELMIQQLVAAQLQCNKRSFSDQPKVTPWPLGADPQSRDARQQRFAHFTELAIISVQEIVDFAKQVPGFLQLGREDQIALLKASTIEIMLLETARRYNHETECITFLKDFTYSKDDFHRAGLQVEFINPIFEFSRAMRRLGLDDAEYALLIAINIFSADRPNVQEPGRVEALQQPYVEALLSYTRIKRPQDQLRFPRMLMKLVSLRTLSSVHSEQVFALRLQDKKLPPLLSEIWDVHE
As to the kind of experiment: Agonist activity at GAL4-fused human LXRbeta expressed in HEK293 cells assessed as activation of basal transcriptional activity up to 10 uM after 20 hrs by dual-glo luciferase reporter gene assay. It counts as cell-based. (In a reporter assay the amount or activity of a reporter protein is the signal.)

Series [5] has as its target T3, Nuclear receptor subfamily 1 group I member 2 (Homo sapiens, UniProt O75469).
T3 sequence (O75469 whole entry): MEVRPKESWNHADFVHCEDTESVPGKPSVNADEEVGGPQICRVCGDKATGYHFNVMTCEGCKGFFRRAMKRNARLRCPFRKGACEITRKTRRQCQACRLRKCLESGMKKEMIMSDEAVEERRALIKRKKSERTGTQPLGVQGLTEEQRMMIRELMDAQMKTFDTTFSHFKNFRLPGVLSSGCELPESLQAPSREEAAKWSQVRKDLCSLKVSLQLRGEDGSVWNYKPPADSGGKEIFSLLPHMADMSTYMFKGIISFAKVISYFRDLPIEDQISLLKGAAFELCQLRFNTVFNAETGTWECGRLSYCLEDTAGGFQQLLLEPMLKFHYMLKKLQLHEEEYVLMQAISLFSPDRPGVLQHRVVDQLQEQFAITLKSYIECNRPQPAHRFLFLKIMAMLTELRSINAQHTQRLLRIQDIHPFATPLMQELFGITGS
As to the kind of experiment: Agonist activity at GAL4-fused human PXR expressed in HEK293 cells assessed as activation of basal transcriptional activity up to 10 uM after 20 hrs by dual-glo luciferase reporter gene assay. The format is cell-based. The settings on record: hek293, 20 h.

Series [6] has as its target T4, Bile acid receptor (Homo sapiens) (UniProt Q96RI1).
T4 sequence (whole entry): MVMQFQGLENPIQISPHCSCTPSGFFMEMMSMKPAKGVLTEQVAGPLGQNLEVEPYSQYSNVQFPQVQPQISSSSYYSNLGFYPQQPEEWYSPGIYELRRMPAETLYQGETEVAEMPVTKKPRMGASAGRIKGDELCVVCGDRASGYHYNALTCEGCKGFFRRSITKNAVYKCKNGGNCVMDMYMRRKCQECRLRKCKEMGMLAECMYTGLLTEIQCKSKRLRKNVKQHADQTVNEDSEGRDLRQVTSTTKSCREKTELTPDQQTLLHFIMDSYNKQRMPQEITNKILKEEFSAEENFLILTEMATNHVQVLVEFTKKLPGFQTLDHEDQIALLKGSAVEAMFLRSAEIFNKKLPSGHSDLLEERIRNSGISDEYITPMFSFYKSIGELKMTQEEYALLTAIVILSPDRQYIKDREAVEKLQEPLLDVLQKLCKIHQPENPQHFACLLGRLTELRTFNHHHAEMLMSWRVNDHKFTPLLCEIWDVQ
As to the kind of experiment: Agonist activity at GAL4-fused human FXR expressed in HEK293 cells assessed as activation of basal transcriptional activity up to 10 uM after 20 hrs by dual-glo luciferase reporter gene assay. It counts as cell-based.

Series [7] concerns the target T5, Oxysterols receptor LXR-beta (Homo sapiens, UniProt P55055).
T5 sequence (P55055 whole entry): T2 sequence (whole entry)
As to the kind of experiment: Antagonist activity at GAL4-fused human LXRbeta expressed in HEK293 cells assessed as inhibition of T0901317-stimulated transcriptional activity after 20 hrs by dual-glo luciferase reporter gene assay. The format is cell-based.

The target of series [8] is T6, Nuclear receptor ROR-beta (Homo sapiens, UniProt Q92753).
T6 sequence (Q92753 whole entry): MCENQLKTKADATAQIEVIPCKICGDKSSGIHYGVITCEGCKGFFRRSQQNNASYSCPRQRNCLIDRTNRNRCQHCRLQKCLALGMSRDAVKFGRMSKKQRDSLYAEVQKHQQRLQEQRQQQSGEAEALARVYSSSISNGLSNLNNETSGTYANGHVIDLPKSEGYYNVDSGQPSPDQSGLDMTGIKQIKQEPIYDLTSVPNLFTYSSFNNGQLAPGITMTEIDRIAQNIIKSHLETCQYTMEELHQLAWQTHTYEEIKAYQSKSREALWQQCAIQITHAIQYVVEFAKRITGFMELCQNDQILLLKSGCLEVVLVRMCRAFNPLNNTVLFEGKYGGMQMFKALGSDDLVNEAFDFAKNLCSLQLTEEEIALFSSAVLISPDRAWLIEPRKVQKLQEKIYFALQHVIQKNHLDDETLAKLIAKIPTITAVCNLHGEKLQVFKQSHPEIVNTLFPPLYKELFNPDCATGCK
As to the kind of experiment: Inverse agonist activity at GAL4-fused human RORb expressed in HEK293 cells assessed as suppression of basal transcriptional activity after 20 hrs by dual-glo luciferase reporter gene assay. It counts as cell-based.

Series [9] can be described thus: Plasma protein binding in human at 5 uM after 4 hrs by equilibrium dialysis method. As to conditions: read-out: PPB. It counts as ADME, cell-free.
The target in the next series is T7, Bile acid receptor (Homo sapiens, UniProt Q96RI1).
T7 sequence (Q96RI1 whole entry): T4 sequence (whole entry)
As to the kind of experiment: Antagonist activity at GAL4-fused human FXR expressed in HEK293 cells assessed as inhibition of T0901317-stimulated transcriptional activity after 20 hrs by dual-glo luciferase reporter gene assay. It counts as cell-based.

Active and inactive are the calls of the source. No cut-off for these calls is given here.

For the molecule `O=C(Nc1ccc2c(c1)N(S(=O)(=O)c1ccc(F)cc1)CC2)c1c(F)cccc1F`, the EC50 amounted to 4.2 µM in series [1], 5.7 µM in [7], 7.9 µM in [8] and 4.2 µM on Bile acid receptor. For the same molecule, the Papp B→A at 1 h, 100 µM in series [2] was 11 ×10⁻⁶ cm/s. Also, the fraction unbound at 4 h, 5 µM is 0.01 in series [3] and below 0.01 in series [9]. For the same molecule, the result in series [4] and in series [6] was inactive. Further, the Activity result in series [5] was “Not Active”.

Turning to `O=C(Nc1ccc2c(c1)N(S(=O)(=O)c1ccc(F)cc1)CCC2)c1ccccc1Cl`, the EC50 amounted to 2.6 µM in series [1], 3.8 µM in series [7], 4.1 µM in series [8] and 5.9 µM at Bile acid receptor. In addition, the Papp B→A at 1 h, 100 µM in series [2] amounted to 15 ×10⁻⁶ cm/s. In addition, the fraction unbound at 4 h, 5 µM in series [3] and in [9] was below 0.01 in each case. Besides, the result in [4] and in [6] was inactive. Moreover, the Activity entry in [5] is “Not Active”.

Turning to `O=C(Nc1ccc2c(c1)N(S(=O)(=O)c1ccc(F)cc1)CCC2)c1c(F)cccc1Cl`, the Papp B→A at 1 h, 100 µM in series [2] was 12 ×10⁻⁶ cm/s. The fraction unbound at 4 h, 5 µM in series [3] and in series [9] was below 0.01 throughout. Besides, the outcome in series [4] and in [6] was inactive. For the same molecule, the Activity result in [5] was “Not Active”. In addition, the concentration giving a half-maximal response (EC50) in series [7] was determined as 2.6 µM; in [8], 3.4 µM; on Bile acid receptor, 5.3 µM.

For `O=C(Nc1ccc2c(c1)N(S(=O)(=O)c1ccc(F)cc1)CCC2)c1c(F)cccc1F`, the EC50 in [1] was 4.1 µM; in series [7], 3.2 µM; in [8], 5.4 µM; on Bile acid receptor, 7.6 µM. Besides, the Papp B→A at 1 h, 100 µM in series [2] is 14 ×10⁻⁶ cm/s. Also, the fraction unbound at 4 h, 5 µM in series [3] was 0.01; in series [9], below 0.01. Besides, the outcome in series [4] and in series [6] was inactive. Also, the Activity result in series [5] is “Not Active”.

Values taken from ChEMBL document CHEMBL3616373, “Identification of N-sulfonyl-tetrahydroquinolines as RORc inverse agonists” (Bioorg Med Chem Lett, 2015).
